Reference: patent US8263605B2, “Modulators of muscarinic receptors” (Vertex Pharmaceutical Incorporated, priority 2006, dated 2012)

How the values were obtained:
M4 muscarinic receptor = target: T1, M4 muscarinic receptor (Homo sapiens, UniProt P08173); assay: Functional mobilization of intracellular calcium (FLIPR), M4-CHO cells; type: cell-based; settings: for Emax: 100% efficacy is the maximum response obtained with the Carbachol control; for M4 Activity: CHO cells expressing M4, calcium mobilization
T1 construct: expressed in transfected cells; host or cells: CHO (M4-CHO)
T1 sequence (P08173 1-479): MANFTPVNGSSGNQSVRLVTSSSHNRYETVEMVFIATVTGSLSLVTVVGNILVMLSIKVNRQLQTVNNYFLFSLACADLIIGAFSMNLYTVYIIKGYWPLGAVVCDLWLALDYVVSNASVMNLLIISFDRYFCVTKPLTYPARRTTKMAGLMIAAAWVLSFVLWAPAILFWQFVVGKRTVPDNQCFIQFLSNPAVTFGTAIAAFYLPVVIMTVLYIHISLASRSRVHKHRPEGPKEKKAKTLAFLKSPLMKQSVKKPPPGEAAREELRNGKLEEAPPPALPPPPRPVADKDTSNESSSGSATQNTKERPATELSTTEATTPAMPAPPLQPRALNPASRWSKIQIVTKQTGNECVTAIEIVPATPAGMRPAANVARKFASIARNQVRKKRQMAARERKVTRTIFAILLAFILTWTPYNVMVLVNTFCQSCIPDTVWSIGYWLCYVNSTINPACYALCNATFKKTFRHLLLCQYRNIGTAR
In short: (§1)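 Recombinant CHO cells loaded with Fluo-3 AM or Calcium 3 dye; fluorescence recorded 60 s on FLIPR in pH 7.4 buffer with 1 mM probenecid, 0.5% DMSO. Agonist mode: compound alone; antagonist mode: 15 min preincubation (or co-application) then carbachol at EC80. Efficacy relative to maximal carbachol response.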

M1 muscarinic receptor = target: T2, M1 muscarinic receptor (Homo sapiens, UniProt P11229); assay: Functional mobilization of intracellular calcium (FLIPR), M1-CHO cells; type: cell-based; settings: for Emax: 100% efficacy is the maximum response obtained with the Carbachol control; for M1 Activity: CHO cells expressing M1, calcium mobilization
T2 construct: expressed in transfected cells; host or cells: CHO (M1-CHO)
T2 sequence (P11229 1-460): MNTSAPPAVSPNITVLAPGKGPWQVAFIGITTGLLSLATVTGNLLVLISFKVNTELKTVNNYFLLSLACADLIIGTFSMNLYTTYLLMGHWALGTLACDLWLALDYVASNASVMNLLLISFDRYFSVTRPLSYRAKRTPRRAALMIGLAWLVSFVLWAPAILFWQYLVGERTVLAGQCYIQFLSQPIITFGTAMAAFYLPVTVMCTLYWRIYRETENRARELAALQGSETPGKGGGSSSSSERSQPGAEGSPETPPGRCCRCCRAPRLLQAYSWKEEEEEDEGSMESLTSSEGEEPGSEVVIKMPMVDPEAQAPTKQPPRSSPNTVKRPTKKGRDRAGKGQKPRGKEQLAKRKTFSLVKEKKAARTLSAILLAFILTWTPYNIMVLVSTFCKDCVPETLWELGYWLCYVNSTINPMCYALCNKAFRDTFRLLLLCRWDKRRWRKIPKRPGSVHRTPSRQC
In short: as §1

| Compound | Emax (M4 muscarinic receptor) | M4 Activity (M4 muscarinic receptor) | Emax (M1 muscarinic receptor) | M1 Activity (M1 muscarinic receptor) |
| --- | --- | --- | --- | --- |
| Cc1nsc(N2CCC(N3CCC4(CC3)CN(C(=O)N(C)C)c3ccccc34)CC2)n1 [compound 53] | > 100% | +++ (activity was measured to be less than 2.0 μM) | 25 to 100% | +++ (activity was measured to be less than 2.0 μM) |
| COC(=O)N1CC[C@@H](CN2CCC3(CC2)CN(C(=O)N(C)C)c2ccccc23)C1 [compound 54] | 25 to 100% | +++ (activity was measured to be less than 2.0 μM) | 25 to 100% | +++ (activity was measured to be less than 2.0 μM) |
| CCCOC(=O)N1CC[C@@H](CN2CCC3(CC2)CN(C(=O)N(C)C)c2ccccc23)C1 [compound 55] | 25 to 100% | +++ (activity was measured to be less than 2.0 μM) | < 25% | ++ (activity was measured to be from 2.0 μM to 10.0 μM) |
| CC(C)OC(=O)N1CC[C@@H](CN2CCC3(CC2)CN(C(=O)N(C)C)c2ccccc23)C1 [compound 56] | 25 to 100% | +++ (activity was measured to be less than 2.0 μM) | 25 to 100% | ++ (activity was measured to be from 2.0 μM to 10.0 μM) |
| CN(C)C(=O)N1CC2(CCN(C[C@@H]3CCN(C(=O)OCC(F)F)C3)CC2)c2ccccc21 [compound 57] | 25 to 100% | +++ (activity was measured to be less than 2.0 μM) | 25 to 100% | +++ (activity was measured to be less than 2.0 μM) |
| COCCOC(=O)N1CC[C@@H](CN2CCC3(CC2)CN(C(=O)N(C)C)c2ccccc23)C1 [compound 58] | 25 to 100% | +++ (activity was measured to be less than 2.0 μM) | 25 to 100% | ++ (activity was measured to be from 2.0 μM to 10.0 μM) |
| COC(=O)N1CC[C@H](CN2CCC3(CC2)CN(C(=O)N(C)C)c2ccccc23)C1 [compound 59] | 25 to 100% | +++ (activity was measured to be less than 2.0 μM) | 25 to 100% | +++ (activity was measured to be less than 2.0 μM) |
| CCOC(=O)N1CC[C@H](CN2CCC3(CC2)CN(C(=O)N(C)C)c2ccccc23)C1 [compound 60] | 25 to 100% | +++ (activity was measured to be less than 2.0 μM) | 25 to 100% | +++ (activity was measured to be less than 2.0 μM) |
| CCCOC(=O)N1CC[C@H](CN2CCC3(CC2)CN(C(=O)N(C)C)c2ccccc23)C1 [compound 61] | 25 to 100% | +++ (activity was measured to be less than 2.0 μM) | < 25% | ++ (activity was measured to be from 2.0 μM to 10.0 μM) |
| CC(C)OC(=O)N1CC[C@H](CN2CCC3(CC2)CN(C(=O)N(C)C)c2ccccc23)C1 [compound 62] | 25 to 100% | +++ (activity was measured to be less than 2.0 μM) | 25 to 100% | ++ (activity was measured to be from 2.0 μM to 10.0 μM) |
| CN(C)C(=O)N1CC2(CCN(C[C@H]3CCN(C(=O)OCC(F)F)C3)CC2)c2ccccc21 [compound 63] | 25 to 100% | +++ (activity was measured to be less than 2.0 μM) | 25 to 100% | +++ (activity was measured to be less than 2.0 μM) |
| COCCOC(=O)N1CC[C@H](CN2CCC3(CC2)CN(C(=O)N(C)C)c2ccccc23)C1 [compound 64] | 25 to 100% | +++ (activity was measured to be less than 2.0 μM) | 25 to 100% | ++ (activity was measured to be from 2.0 μM to 10.0 μM) |
| COC(=O)N1CCCC(N2CCC3(CC2)CN(C(=O)N(C)C)c2ccccc23)CC1 (stereo not shown) [compound 67] | 25 to 100% | +++ (activity was measured to be less than 2.0 μM) | 25 to 100% | +++ (activity was measured to be less than 2.0 μM) |
| CCOC(=O)N1CCCC(N2CCC3(CC2)CN(C(=O)N(C)C)c2ccccc23)CC1 (stereo not shown) [compound 68] | > 100% | +++ (activity was measured to be less than 2.0 μM) | 25 to 100% | +++ (activity was measured to be less than 2.0 μM) |
| CCCOC(=O)N1CCCC(N2CCC3(CC2)CN(C(=O)N(C)C)c2ccccc23)CC1 (stereo not shown) [compound 69] | 25 to 100% | +++ (activity was measured to be less than 2.0 μM) | 25 to 100% | +++ (activity was measured to be less than 2.0 μM) |
| CC(C)OC(=O)N1CCCC(N2CCC3(CC2)CN(C(=O)N(C)C)c2ccccc23)CC1 (stereo not shown) [compound 70] | 25 to 100% | +++ (activity was measured to be less than 2.0 μM) | 25 to 100% | ++ (activity was measured to be from 2.0 μM to 10.0 μM) |
| CN(C)C(=O)N1CC2(CCN(C3CCCN(C(=O)OCC(F)F)CC3)CC2)c2ccccc21 (stereo not shown) [compound 71] | 25 to 100% | +++ (activity was measured to be less than 2.0 μM) | 25 to 100% | +++ (activity was measured to be less than 2.0 μM) |
| COCCOC(=O)N1CCCC(N2CCC3(CC2)CN(C(=O)N(C)C)c2ccccc23)CC1 (stereo not shown) [compound 72] | 25 to 100% | +++ (activity was measured to be less than 2.0 μM) | 25 to 100% | +++ (activity was measured to be less than 2.0 μM) |
| CN(C)C(=O)N1CC2(CCN(C3CCCN(C(=O)O[C@@H]4CCOC4)CC3)CC2)c2ccccc21 (stereo partly shown) [compound 73] | 25 to 100% | +++ (activity was measured to be less than 2.0 μM) | < 25% | ++ (activity was measured to be from 2.0 μM to 10.0 μM) |
| Cc1nsc(C2CCC(N3CCC4(CC3)CN(C(=O)N(C)C)c3ccccc34)CC2)n1 (stereo not shown) [compound 74] | 25 to 100% | +++ (activity was measured to be less than 2.0 μM) | 25 to 100% | +++ (activity was measured to be less than 2.0 μM) |
| CN(C)C(=O)N1CC2(CCN(C3CCN(c4ncns4)CC3)CC2)c2ccccc21 [compound 75] | 25 to 100% | +++ (activity was measured to be less than 2.0 μM) | 25 to 100% | ++ (activity was measured to be from 2.0 μM to 10.0 μM) |
| CCc1nsc(N2CCC(N3CCC4(CC3)CN(C(=O)N(C)C)c3ccccc34)CC2)n1 [compound 76] | > 100% | +++ (activity was measured to be less than 2.0 μM) | > 100% | +++ (activity was measured to be less than 2.0 μM) |
| CN(C)C(=O)N1CC2(CCN(C3CCN(c4cncc(Cl)n4)CC3)CC2)c2ccccc21 [compound 77] | 25 to 100% | +++ (activity was measured to be less than 2.0 μM) | 25 to 100% | +++ (activity was measured to be less than 2.0 μM) |
| CN(C)C(=O)N1CC2(CCN(C3CCN(c4cnc5ccccc5n4)CC3)CC2)c2ccccc21 [compound 78] | 25 to 100% | +++ (activity was measured to be less than 2.0 μM) | 25 to 100% | +++ (activity was measured to be less than 2.0 μM) |
| Cc1cncc(N2CCC(N3CCC4(CC3)CN(C(=O)N(C)C)c3ccccc34)CC2)n1 [compound 79] | 25 to 100% | +++ (activity was measured to be less than 2.0 μM) | 25 to 100% | +++ (activity was measured to be less than 2.0 μM) |
| COC(=O)N1CCCC(N2CCC3(CC2)CN(C(=O)N(C)C)c2ccccc23)CCC1 [compound 80] | > 100% | +++ (activity was measured to be less than 2.0 μM) | 25 to 100% | +++ (activity was measured to be less than 2.0 μM) |
| CCOC(=O)N1CCC(C)(N2CCC3(CC2)CN(C(=O)N(C)C)c2ccccc23)CC1 [compound 81] | 25 to 100% | +++ (activity was measured to be less than 2.0 μM) | 25 to 100% | +++ (activity was measured to be less than 2.0 μM) |
| CN(C)C(=O)N1CC2(CCN(C3(C)CCN(c4cnccn4)CC3)CC2)c2ccccc21 [compound 82] | 25 to 100% | +++ (activity was measured to be less than 2.0 μM) | 25 to 100% | ++ (activity was measured to be from 2.0 μM to 10.0 μM) |
